Source: the METLIN SMRT retention time set (Domingo-Almenara et al. 2019)

Assay: gradient 5% acetonitrile 3 min, to 50% in 2 min, to 85% in 15 min, held 3 min, 100 µL/min
Settings: column: Zorbax Extend-C18 2.1 x 50 mm; eluents: water / acetonitrile, 0.1% formic acid
Outline: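 In both positive and negative ionization mode, a quadrupole time-of-flight mass spectrometer coupled to HPLC analyzed pure standards run in mixtures of ~100 molecules. The Zorbax Extend-C18 column (2.1 × 50 mm, 1.8 μm) was operated at 100 μL/min with water and acetonitrile, each containing 0.1% formic acid. The dead volume was 40 μL and the dwell volume 900 μL. Retention time came from adduct peaks that were computationally picked and individually inspected by hand.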

Compound | RP-LC retention time [s]
CCCC(=O)Nc1nc(C(=O)OCC)cs1 | 700
CCN1CCN(C(=O)CN2C(=O)COc3ccc(C(=O)N(CC)CC)cc32)CC1 | 581
COc1ccccc1N1CCN(C(=O)C2CCCN(c3cnc4nccnc4c3)C2)CC1 (configuration not stated) | 688
O=C(c1ccc(Nc2nc3ccccc3n3nnnc23)cc1)N1CCN(c2ccccn2)CC1 | 661
CCC(C)NC(=O)NCCC1CCN(S(=O)(=O)c2ccc(F)cc2)CC1 (configuration not stated) | 814
CCOC(=O)N1CCN(C(=O)Cc2c(C)nn(-c3nc(-c4ccc(C)cc4)cs3)c2C)CC1 | 1070
CCc1ccccc1NC(=O)N1CCN(C2=CC3=NC(CC)CN3C=N2)CC1 (configuration not stated) | 642
O=c1c2ccccc2c(-c2nc(-c3ccncc3)no2)cn1-c1cccc(Cl)c1 | 1020
Cn1cccc1C(CNS(=O)(=O)c1ccc(F)c(Cl)c1)N1CCOCC1 (configuration not stated) | 575
CCOC(=O)c1cc(C(=O)OCC)n(CC(=O)c2ccccc2)n1 | 973
COc1cc(=O)n2c(c1C(=O)Nc1cccc(SC)c1)CCCC2 | 734
CCOc1ccc(NC(=O)Cn2c(N3CCOCC3)nc3cc(C)n(C)c3c2=O)cc1 | 652
COc1ccc2c(c1)C=C(C(=O)NCc1ccc(OC)c(OC)c1)CO2 | 805
CCC(=O)N1CCc2c(C(=O)N3CCN(c4cccc(OC)c4)CC3)cccc21 | 819
Cc1ccc(NC(=O)C2CCN(S(C)(=O)=O)c3cc(Cl)ccc3O2)cc1C (configuration not stated) | 1090
COc1ccc2c(C)c(CCC(=O)N[C@H](C(=O)O)c3ccccc3)c(=O)oc2c1 | 744
O=C(Nc1nc(C(=O)N2CCN(C(=O)c3ccco3)CC2)co1)c1ccsc1 | 656
COc1ccc(C2(CNC(=O)C(=O)Nc3ccc(N4CCCC4=O)c(C)c3)CCCC2)cc1 | 909
Cn1nc(-c2nc(C3CC3)no2)c2c1CCN(C(=O)c1ccc(Br)cc1)C2 | 893
Cc1cc2n(n1)CCCN2C(=O)CCC(=O)NCc1ccc(N(C)C)cc1 | 609
CCOC(=O)N1CCC2(CC1)OC(=O)C(C)=C2C(=O)Nc1cc(OC)cc(OC)c1 | 864
CCN(Cc1ccccc1)S(=O)(=O)c1ccc2c(c1)CCCC(=O)N2 | 856
CN(C)c1ccc(CNC(=O)c2cc3c(=O)n(C)ccc3n2C)cc1 | 579

Compound | RP-LC retention time [s]
O=C(c1cc(F)cc(F)c1)N1CCC(n2c(-c3ccco3)nc3cccnc32)C1 (configuration not stated) | 766
COc1cccc(C(=O)N2CCC3(CC2)NC(=O)c2cccc(Cl)c2N3)c1 | 749
CC1Oc2ccc(-c3csc(NC(=O)c4cccc(Br)c4)n3)cc2N(C)C1=O (configuration not stated) | 960
O=C(Cn1ccc2ccc(N3CCOCC3)nc21)NCC1CCCCC1 | 924
O=C(c1ccoc1)N1CCCC(c2nnc3n2CCN(C2CCCC2)C3)C1 (configuration not stated) | 562
CCN1CCCn2cc(S(=O)(=O)N3CCN(Cc4ccccc4)CC3)cc2C1=O | 587
Cn1ccc(C(=O)N2CCCC2c2ccc(Cl)cc2)n1 (configuration not stated) | 824
O=C(c1ccccc1)N1CCN(c2nnc3ccccn23)CC1 | 608
CC(C)Oc1ccc(-c2noc(CN3N=NC4C(=O)N(c5cccc(F)c5)C(=O)C43)n2)cc1 (configuration not stated) | 1050
CCCn1cc(S(=O)(=O)Nc2cc(Cl)ccc2OC)c2cccnc21 | 995
CN1CCN(CC2(O)CCC3(CCN(C(=O)c4ccsc4)CC3)CC2)CC1 | 570
CCCN(C)c1nccn2c(=O)n(CC(=O)Nc3cccc(Cl)c3)nc12 | 724
CNC(=O)C1CCCN1C(=O)Nc1cccc(C)c1 (configuration not stated) | 635
COc1ccc(NC(=O)C2CCN(C(=O)C3Sc4ccccc4NC3=O)CC2)c(OC)c1 (configuration not stated) | 754
CCCC(=O)NCCc1csc(-c2ccc(Cl)cc2)n1 | 921
COc1ccc(-c2ccc(=O)n(Cc3nc(-c4ccc(F)cc4)no3)n2)cc1 | 995
O=C(CCCc1ccccc1)N1CCC(c2noc(-c3cnccn3)n2)C1 (configuration not stated) | 776
O=C(c1cccs1)N1CCN(c2ccc(-c3noc(C4CCC4)n3)cc2)CC1 | 1070
O=C(NCCCN1CCc2ccccc2C1)c1ccnc(-c2cccs2)c1 | 646
CC(C)Cn1cc(S(=O)(=O)N2CCN(c3cccc(Cl)c3)CC2)c2cccnc21 | 1250
Cc1ccc(NC(=O)C2CCCN(S(=O)(=O)c3c[nH]c(C(=O)N4CCCC4)c3)C2)cc1Cl (configuration not stated) | 852
CC(C)(C)C(=O)NCc1cccnc1-c1ccc(F)cc1 | 614
COC(=O)C1=CN(c2ccccc2C)c2cc(F)ccc2S1(=O)=O | 832

Compound | RP-LC retention time [s]
Cc1ccc(-n2cc(C(=O)NCCCOC(C)C)nn2)cc1 | 810
Cc1cc(C)c2c(N3CCSCC3)nc(C(=O)NCCN3CCCC3)nc2n1 | 600
Cn1c(N2CCN(C(=O)Cc3ccccc3Cl)CC2)cc(=O)n(C)c1=O | 732
CCN(CC)CCNC(=O)c1ccc2nc(C(C)C)oc2c1 | 605
C=CCn1c(=O)c2ccccc2n(Cc2nc(-c3ccc(SC)cc3)no2)c1=O | 1100
CC(C)c1nc(NCc2ccc(F)cc2F)ncc1C(=O)O | 875
CCC(C)C1Nc2ccc(C(=O)NCCCOC)cc2NC1=O (configuration not stated) | 653
CC1(C)CC2CC(C)(CN2c2ncnc(N)c2[N+](=O)[O-])C1 (configuration not stated) | 867
CCc1ccc(S(=O)(=O)Nc2cc(-c3cn4ccc(C)cc4n3)ccc2C)cc1 | 745
CCOc1ccc(CNC(=O)c2c(C)oc3c2C2=NCCN2C=N3)cc1 | 668
COCCc1nncn1C1CCN(C(=O)c2ccccc2OC(F)(F)F)CC1 | 646
CCNC(=O)C1CCCN(c2nc3ncn(CC(=O)Nc4ccccc4)c(=O)c3s2)C1 (configuration not stated) | 644
CC1(C)Cc2cccc(OCc3ccc(C(=O)NCc4ccccn4)cc3)c2O1 | 663
CN1CCN(C(=O)c2csc(N3CCN(c4ccc(Cl)cc4)CC3)n2)CC1 | 686
COc1ccc(CC(=O)NCC2(CO)CC2)cc1OC | 582
O=C(NC1CC1)C1CCN(c2nc3ccsc3c(=O)n2Cc2ccccc2)CC1 | 741
CCn1cc(-c2ccnc3[nH]c(-c4cccc(CN(C)C)c4)cc23)c(-c2ccc(NC(=O)N(C)C)cc2)n1 | 632
Cc1cccc(-c2ncccc2CNS(=O)(=O)c2ccccc2C)c1 | 725
CCc1nc(-c2csc(S(=O)(=O)N3CCCC(C(=O)NCc4ccccc4C)C3)c2)no1 (configuration not stated) | 1010
CS(=O)(=O)N1CCCN(C(=O)c2ccccc2F)CC1 | 651
O=C(Cn1cnc2ccccc21)OCc1cc(-c2ccc3c(c2)OCO3)on1 | 639
